A short description of data set [1]: Dynamic moisture sorption assessment. As to conditions: for deliquescence: up to about 90% relative humidity at room temperature. Type of data set: physicochemical. The procedure: Dynamic moisture sorption (DMS) assessment was performed at 25° C. using a VTI atmospheric microbalance, SGA-100 system (VTI Corp., Hialeah, Fla. 33016). […] A typical DMS analysis consisted of three or four scans: ambient to 2% relative humidity (RH), 2% RH to 90% RH, 90% RH to 5% RH at a scan rate of 5% RH/step, and, in some case a second adsorption 2% RH to 90% RH. The mass was measured every two minutes and the RH was changed to the next value (±5% RH) when the mass of the sample was stable to within 0.02% for 5 consecutive points.

For data set [2], the target named is T1, human mu opioid receptor (Homo sapiens, UniProt P35372).
T1 construct: expressed in transfected cells; host or cells: CHO-K1
Nature of the data set: Radioligand binding assay, [3H]-Diprenorphine displacement, CHO-K1 membranes.

In data set [3] the target is T1, human mu opioid receptor. Briefly: Human mu GTP-Eu nucleotide exchange assay (agonist mediated activation). Type of data set: biochemical. As to conditions: relative to DAMGO as full agonist; read-out: intrinsic activity (IA), bound GTP-Eu relative to DAMGO (IA=100).
For data set [4], the system named is loperamide-induced delayed gastric emptying. Briefly: Rat gastric emptying assay (reversal of loperamide-induced delay). Type of data set: in vivo. Particulars: administered orally, loperamide 1 mg/kg s.c. The procedure:
Assay 3: Rat Model of In Vivo Efficacy In this assay the efficacy of test compounds was evaluated in a model of gastrointestinal transit, which evaluates peripheral activity. This study was approved by the Institutional Animal Care and Use Committee at […]. and conformed to the Guide for the Care and Use of Laboratory Animals published by the National Academy of Sciences (©1996). Test compounds were evaluated in the rat gastric emptying assay to determine their ability to reverse loperamide-induced delayed gastric emptying. Rats were fasted up overnight prior to administration of test compounds or vehicle by intravenous, subcutaneous, intramuscular or oral routes of administration at doses ranging from 0.001 to about 30 milligrams/kilogram (mg/kg). The administration of test compound was followed by subcutaneous administration of loperamide at a dose of 1 mg/kg or vehicle. […] Gastric weight was then determined after removal of the ligatures. Data was analyzed using the GraphPad Prism Software package (GraphPad Software, Inc., San Diego, Calif.). Percent reversal curves were constructed by non-linear regression analysis using the sigmoidal dose response (variable slope) model and best-fit ID50 values were calculated. […]

In data set [5] the test system is motility of the gastrointestinal (GI) tract. Nature of the data set: Gastrointestinal motility in animal models. Format: in vivo.
Data set [6] in a line: Thermogravimetric analysis (TGA). Format: physicochemical. As to conditions: temperatures below the melting point. The procedure:
Thermogravimetric analysis (TGA) was performed using a TA Instruments Model Q-500 module. Data were collected and analyzed using TA Instruments Thermal Advantage for Q Series™ software. A sample weighing about 1-5 mg was placed in an aluminum pan on a platinum cradle and scanned from ambient temperature to 300° C. with a linear heating rate of 10° C./min. The balance and furnace chambers were purged with nitrogen during use. Representative TGA traces for samples of crystalline Form I and of a crystalline hydrochloride salt of compound 1 are also shown in FIGS. 2 and 7, respectively.

We go through four compounds from patent publication US8486958B2, “Crystalline forms of a 3-carboxypropyl-aminotetralin compound” (priority 2008, dated 2013).

T1 sequence (P35372 whole entry): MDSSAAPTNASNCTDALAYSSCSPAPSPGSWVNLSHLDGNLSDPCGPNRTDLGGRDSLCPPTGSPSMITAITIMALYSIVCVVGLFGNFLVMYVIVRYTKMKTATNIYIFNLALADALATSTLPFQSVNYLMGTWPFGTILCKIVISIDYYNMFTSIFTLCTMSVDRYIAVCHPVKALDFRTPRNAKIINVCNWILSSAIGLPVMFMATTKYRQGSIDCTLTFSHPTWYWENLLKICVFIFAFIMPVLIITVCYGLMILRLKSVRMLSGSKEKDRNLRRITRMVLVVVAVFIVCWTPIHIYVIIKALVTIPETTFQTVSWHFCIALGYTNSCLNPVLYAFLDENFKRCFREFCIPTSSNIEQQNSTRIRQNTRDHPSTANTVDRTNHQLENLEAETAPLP

On to `CCC1(CC)c2cc(C(N)=O)ccc2C[C@H](OC)[C@H]1NCC[C@H](CC1CCCCC1)C(=O)O.Cl` [(S)-4-((2S,3S)-7-Carbamoyl-1,1-diethyl-3-methoxy-1,2,3,4-tetrahydronaphthalen-2-ylamino)-2-cyclohexylmethyl-butyric acid hydrochloride], for which the “appearance and flowability on exposure to humidity” value in data set [1] (about 2% to about 90% relative humidity at room temperature) was “retained their appearance and flowability”. Further, in data set [1], the deliquescence result is “neither crystalline compound 1 nor the crystalline hydrochloride salt of compound 1 is deliquescent”.
On to `CCC1(CC)c2cc(C(N)=O)ccc2C[C@H](OC)[C@H]1NCC[C@H](CC1CCCCC1)C(=O)O` [crystalline compound 1, (S)-4-((2S,3S)-7-carbamoyl-1,1-diethyl-3-methoxy-1,2,3,4-tetrahydronaphthalen-2-ylamino)-2-cyclohexylmethyl-butyric acid], for which, in data set [1] (2% to 90% relative humidity, room temperature), the “weight gain (moisture sorption)” value is given as “less than 2.5%”. Besides, the deliquescence entry in data set [1] was “neither crystalline compound 1 nor the crystalline hydrochloride salt of compound 1 is deliquescent”.
On to `CCC1(CC)c2cc(C(N)=O)ccc2C[C@H](OC)[C@H]1NCC[C@H](CC1CCCCC1)C(=O)O` [Compound 1, (S)-4-((2S,3S)-7-carbamoyl-1,1-diethyl-3-methoxy-1,2,3,4-tetrahydronaphthalen-2-ylamino)-2-cyclohexylmethyl-butyric acid], for which, in data set [2], the Ki was 0.398 nM. Besides, the Emax in data set [3] was -8%. The “ID50, dose required for 50% reversal of the effects of loperamide” value in data set [4] was 0.09 mg/kg. Also, the “effect on motility of the gastrointestinal tract” value in data set [5] is given as “increase motility of the gastrointestinal (GI) tract”.
Take `CCC1(CC)c2cc(C(N)=O)ccc2C[C@H](OC)[C@H]1NCC[C@H](CC1CCCCC1)C(=O)O` [Form I, (S)-4-((2S,3S)-7-carbamoyl-1,1-diethyl-3-methoxy-1,2,3,4-tetrahydronaphthalen-2-ylamino)-2-cyclohexylmethyl-butyric acid]: the “weight gain (moisture sorption)” value in data set [1] (40% to 75% relative humidity) is “less than 1%”. Also, in data set [6], the TGA weight loss result is given as “no significant weight loss”.

Usually Ki stands for the dissociation constant of the complex between target and ligand, obtained from inhibition or displacement. Read a low Ki as a stronger hold on the target.
